{"source": "patent US20260285850A1", "about": "“SUBSTITUTED OXAZOLIDINONES AND IMIDAZOLINONES AS HERBICIDES” (FMC CORPORATION, priority 2023, published 2026)", "format_in_all_cases": "in vivo", "key": {"[1]": {"tested_on": "wheat (Triticum aestivum)", "assay": "Test A preemergence soil spray, visual injury rating 0-100", "settings": "10 days, 0 = no effect, 100 = complete control", "method_in_brief": "(§1)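 Compounds formulated in a non-phytotoxic solvent with surfactant are sprayed onto soil of freshly planted loam-sand pots ahead of emergence, or onto emerged plants 2-10 cm tall. After a 10-day greenhouse period, each species is scored visually for injury against untreated controls.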"}, "[2]": {"tested_on": "oat, wild (wild oat, Avena fatua)", "assay": "Test A preemergence soil spray, visual injury rating 0-100", "settings": "10 days, 0 = no effect, 100 = complete control", "method_in_brief": "as §1"}, "[3]": {"tested_on": "soybean (Glycine max)", "assay": "Test A preemergence soil spray, visual injury rating 0-100", "settings": "10 days, 0 = no effect, 100 = complete control", "method_in_brief": "as §1"}, "[4]": {"tested_on": "palmer (palmer amaranth, palmer pigweed, Amaranthus palmeri)", "assay": "Test A preemergence soil spray, visual injury rating 0-100", "settings": "10 days, 0 = no effect, 100 = complete control", "method_in_brief": "as §1"}, "[5]": {"tested_on": "green foxtail (Setaria viridis)", "assay": "Test A preemergence soil spray, visual injury rating 0-100", "settings": "10 days, 0 = no effect, 100 = complete control", "method_in_brief": "as §1"}, "[6]": {"tested_on": "corn (Zea mays)", "assay": "Test A preemergence soil spray, visual injury rating 0-100", "settings": "10 days, 0 = no effect, 100 = complete control", "method_in_brief": "as §1"}, "[7]": {"tested_on": "barnyardgrass (Echinochloa crus-galli)", "assay": "Test A preemergence soil spray, visual injury rating 0-100", "settings": "10 days, 0 = no effect, 100 = complete control", "method_in_brief": "as §1"}, "[8]": {"tested_on": "ragweed (common ragweed, Ambrosia artemisiifolia)", "assay": "Test A preemergence soil spray, visual injury rating 0-100", "settings": "10 days, 0 = no effect, 100 = complete control", "method_in_brief": "as §1"}, "[9]": {"tested_on": "blackgrass (Alopecurus myosuroides)", "assay": "Test A preemergence soil spray, visual injury rating 0-100", "settings": "10 days, 0 = no effect, 100 = complete control", "method_in_brief": "as §1"}, "[10]": {"tested_on": "ryegrass, Italian (italian ryegrass, Lolium multiflorum)", "assay": "Test A preemergence soil spray, visual injury rating 0-100", "settings": "10 days, 0 = no effect, 100 = complete control", "method_in_brief": "as §1"}, "[11]": {"tested_on": "kochia (Bassia scoparia)", "assay": "Test A preemergence soil spray, visual injury rating 0-100", "settings": "10 days, 0 = no effect, 100 = complete control", "method_in_brief": "as §1"}, "[12]": {"tested_on": "barnyardgrass (Echinochloa crusgalli)", "assay": "Test B flooded paddy test, visual plant response rating 0-100", "settings": "250 g ai/ha, Flood, applied to paddy water, evaluated after 13 days", "method_in_brief": "(§2)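 In this flooded assay, 2-leaf seedlings received compound through the water layer, kept at 3 cm over the soil. Plants were held 13 days in a greenhouse and then visually compared with control pots.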"}, "[13]": {"tested_on": "rice (Oryza sativa)", "assay": "Test B flooded paddy test, visual plant response rating 0-100", "settings": "250 g ai/ha, Flood, applied to paddy water, evaluated after 13 days", "method_in_brief": "as §2"}, "[14]": {"tested_on": "ducksalad (Heteranthera limosa)", "assay": "Test B flooded paddy test, visual plant response rating 0-100", "settings": "250 g ai/ha, Flood, applied to paddy water, evaluated after 13 days", "method_in_brief": "as §2"}, "[15]": {"tested_on": "sedge, umbrella (small-flower umbrella sedge, Cyperus difformis)", "assay": "Test B flooded paddy test, visual plant response rating 0-100", "settings": "250 g ai/ha, Flood, applied to paddy water, evaluated after 13 days", "method_in_brief": "as §2"}, "[16]": {"tested_on": "wheat (Triticum aestivum)", "assay": "Test A postemergence application, visual injury rating 0-100", "settings": "10 days", "method_in_brief": "as §1"}, "[17]": {"tested_on": "oat, wild (wild oat, Avena fatua)", "assay": "Test A postemergence application, visual injury rating 0-100", "settings": "10 days", "method_in_brief": "as §1"}, "[18]": {"tested_on": "soybean (Glycine max)", "assay": "Test A postemergence application, visual injury rating 0-100", "settings": "10 days", "method_in_brief": "as §1"}, "[19]": {"tested_on": "horseweed (Erigeron canadensis)", "assay": "Test A postemergence application, visual injury rating 0-100", "settings": "10 days", "method_in_brief": "as §1"}, "[20]": {"tested_on": "palmer (palmer amaranth, palmer pigweed, Amaranthus palmeri)", "assay": "Test A postemergence application, visual injury rating 0-100", "settings": "10 days", "method_in_brief": "as §1"}, "[21]": {"tested_on": "green foxtail (Setaria viridis)", "assay": "Test A postemergence application, visual injury rating 0-100", "settings": "10 days", "method_in_brief": "as §1"}, "[22]": {"tested_on": "galium (catchweed bedstraw, Galium aparine)", "assay": "Test A postemergence application, visual injury rating 0-100", "settings": "10 days", "method_in_brief": "as §1"}, "[23]": {"tested_on": "corn (Zea mays)", "assay": "Test A postemergence application, visual injury rating 0-100", "settings": "10 days", "method_in_brief": "as §1"}, "[24]": {"tested_on": "barnyardgrass (Echinochloa crus-galli)", "assay": "Test A postemergence application, visual injury rating 0-100", "settings": "10 days", "method_in_brief": "as §1"}, "[25]": {"tested_on": "ragweed (common ragweed, Ambrosia artemisiifolia)", "assay": "Test A postemergence application, visual injury rating 0-100", "settings": "10 days", "method_in_brief": "as §1"}, "[26]": {"tested_on": "blackgrass (Alopecurus myosuroides)", "assay": "Test A postemergence application, visual injury rating 0-100", "settings": "10 days", "method_in_brief": "as §1"}, "[27]": {"tested_on": "ryegrass, Italian (italian ryegrass, Lolium multiflorum)", "assay": "Test A postemergence application, visual injury rating 0-100", "settings": "10 days", "method_in_brief": "as §1"}, "[28]": {"tested_on": "kochia (Bassia scoparia)", "assay": "Test A postemergence application, visual injury rating 0-100", "settings": "10 days", "method_in_brief": "as §1"}, "[29]": {"settings": "31 g ai/ha, postemergence, 0 = no effect, 100 = complete control"}, "[30]": {"settings": "Postemergence, 125 g ai/ha, 0 is no effect, 100 is complete control"}}}
{"smiles": "COC(=O)C1C=CC(NC(=O)C2(C)CN(c3cc(F)cc(Cl)c3)C(=O)O2)C1", "note": "(stereo not shown) [Compound 17]", "values": [{"measurement": "Wheat plant response rating (0-100)", "setting": "[1]; 31 g ai/ha", "result": 80}, {"measurement": "Wheat plant response rating (0 to 100 scale)", "setting": "[1]; 125 g ai/ha", "result": 90}, {"measurement": "Oat, Wild plant response rating (0-100)", "setting": "[2]; 31 g ai/ha", "result": 10}, {"measurement": "Oat, Wild plant response rating (0 to 100 scale)", "setting": "[2]; 125 g ai/ha", "result": 80}, {"measurement": "Soybean plant response rating (0-100)", "setting": "[3]; 31 g ai/ha", "result": 0}, {"measurement": "Soybean plant response rating (0 to 100 scale)", "setting": "[3]; 125 g ai/ha", "result": 80}, {"measurement": "Amaranth, Palmer plant response rating (0-100)", "setting": "[4]; 31 g ai/ha", "result": 70}, {"measurement": "Amaranth, Palmer plant response rating (0 to 100 scale)", "setting": "[4]; 125 g ai/ha", "result": 100}, {"measurement": "Foxtail, Green plant response rating (0-100)", "setting": "[5]; 31 g ai/ha", "result": 50}, {"measurement": "Foxtail, Green plant response rating (0 to 100 scale)", "setting": "[5]; 125 g ai/ha", "result": 100}, {"measurement": "Corn plant response rating (0-100)", "setting": "[6]; 31 g ai/ha", "result": 20}, {"measurement": "Corn plant response rating (0 to 100 scale)", "setting": "[6]; 125 g ai/ha", "result": 80}, {"measurement": "Barnyardgrass plant response rating (0-100)", "setting": "[7]; 31 g ai/ha", "result": 80}, {"measurement": "Barnyardgrass plant response rating (0 to 100 scale)", "setting": "[7]; 125 g ai/ha", "result": 100}, {"measurement": "Ragweed plant response rating (0-100)", "setting": "[8]; 31 g ai/ha", "result": 20}, {"measurement": "Ragweed plant response rating (0 to 100 scale)", "setting": "[8]; 125 g ai/ha", "result": 40}, {"measurement": "Blackgrass plant response rating (0-100)", "setting": "[9]; 31 g ai/ha", "result": 20}, {"measurement": "Blackgrass plant response rating (0 to 100 scale)", "setting": "[9]; 125 g ai/ha", "result": 70}, {"measurement": "Ryegrass, Italian plant response rating (0-100)", "setting": "[10]; 31 g ai/ha", "result": 90}, {"measurement": "Ryegrass, Italian plant response rating (0 to 100 scale)", "setting": "[10]; 125 g ai/ha", "result": 90}, {"measurement": "Kochia plant response rating (0-100)", "setting": "[11]; 31 g ai/ha", "result": 50}, {"measurement": "Kochia plant response rating (0 to 100 scale)", "setting": "[11]; 125 g ai/ha", "result": 100}, {"measurement": "Plant response rating, Barnyardgrass (0 to 100 scale, 0 is no effect and 100 is complete control)", "setting": "[12]", "result": 70}, {"measurement": "Plant response rating, Rice (0 to 100 scale, 0 is no effect and 100 is complete control)", "setting": "[13]", "result": 10}, {"measurement": "Plant response rating, Ducksalad (0 to 100 scale, 0 is no effect and 100 is complete control)", "setting": "[14]", "result": 70}, {"measurement": "Plant response rating, Sedge, Umbrella (0 to 100 scale, 0 is no effect and 100 is complete control)", "setting": "[15]", "result": 60}, {"measurement": "Wheat plant response rating (0-100)", "setting": "[16]; [29]", "result": 90}, {"measurement": "Wheat plant response rating (0 to 100 scale)", "setting": "[16]; [30]", "result": 90}, {"measurement": "Oat, Wild plant response rating (0-100)", "setting": "[17]; [29]", "result": 90}, {"measurement": "Oat, Wild plant response rating (0 to 100 scale)", "setting": "[17]; [30]", "result": 90}, {"measurement": "Soybean plant response rating (0-100)", "setting": "[18]; [29]", "result": 50}, {"measurement": "Soybean plant response rating (0 to 100 scale)", "setting": "[18]; [30]", "result": 90}, {"measurement": "Horseweed plant response rating (0-100)", "setting": "[19]; [29]", "result": 30}, {"measurement": "Horseweed plant response rating (0 to 100 scale)", "setting": "[19]; [30]", "result": 70}, {"measurement": "Amaranth, Palmer plant response rating (0-100)", "setting": "[20]; [29]", "result": 70}, {"measurement": "Amaranth, Palmer / Pigweed, Palmer plant response rating (0 to 100 scale)", "setting": "[20]; [30]", "result": 90}, {"measurement": "Foxtail, Green plant response rating (0-100)", "setting": "[21]; [29]", "result": 80}, {"measurement": "Foxtail, Green plant response rating (0 to 100 scale)", "setting": "[21]; [30]", "result": 90}, {"measurement": "Galium plant response rating (0-100)", "setting": "[22]; [29]", "result": 80}, {"measurement": "Galium plant response rating (0 to 100 scale)", "setting": "[22]; [30]", "result": 80}, {"measurement": "Corn plant response rating (0-100)", "setting": "[23]; [29]", "result": 70}, {"measurement": "Corn plant response rating (0 to 100 scale)", "setting": "[23]; [30]", "result": 100}, {"measurement": "Barnyardgrass plant response rating (0-100)", "setting": "[24]; [29]", "result": 100}, {"measurement": "Barnyardgrass plant response rating (0 to 100 scale)", "setting": "[24]; [30]", "result": 100}, {"measurement": "Ragweed plant response rating (0-100)", "setting": "[25]; [29]", "result": 30}, {"measurement": "Ragweed plant response rating (0 to 100 scale)", "setting": "[25]; [30]", "result": 80}, {"measurement": "Blackgrass plant response rating (0-100)", "setting": "[26]; [29]", "result": 60}, {"measurement": "Blackgrass plant response rating (0 to 100 scale)", "setting": "[26]; [30]", "result": 90}, {"measurement": "Ryegrass, Italian plant response rating (0-100)", "setting": "[27]; [29]", "result": 90}, {"measurement": "Ryegrass, Italian plant response rating (0 to 100 scale)", "setting": "[27]; [30]", "result": 90}, {"measurement": "Kochia plant response rating (0-100)", "setting": "[28]; [29]", "result": 60}, {"measurement": "Kochia plant response rating (0 to 100 scale)", "setting": "[28]; [30]", "result": 70}]}
